Test results taken from patent publication US10695337B2, “Piperidin-4-yl azetidine derivatives as JAK1 inhibitors” (Incyte Corporation, priority 2010, dated 2020).

Target: human JAK1 (a.a. 837-1142)
Experiment: In vitro JAK kinase assay (HTRF, phosphorylation of a biotinylated peptide), JAK1
Type: biochemical
Conditions: measured at 1 mM ATP; JAK2 IC50 / JAK1 IC50
Summary of the method: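 N-terminally His-tagged catalytic domains, baculovirus-expressed in insect cells and purified, were used as enzyme. Reactions ran 1 hr at room temperature and were stopped with a mix of 45 mM EDTA, 300 nM SA-APC and 6 nM Eu-Py20. The HTRF signal was read after 40 min of antibody binding.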

Compound | IC50 Ratio JAK2/JAK1
N#CCC1(n2cc(-c3ncnc4[nH]ccc34)cn2)CN(C2CCN(Cc3cc4ccccc4nc3Cl)CC2)C1 [Example 214, {1-{1-[(2-chloroquinolin-3-yl)methyl]piperidin-4-yl}-3-[4-(7H-pyrrolo[2,3-d]pyrimidin-4-yl)-1H-pyrazol-1-yl]azetidin-3-yl}acetonitrile] | 2.5
COc1cccc(F)c1CN1CCC(N2CC(CC#N)(n3cc(-c4ncnc5[nH]ccc45)cn3)C2)CC1 [Example 218, {1-[1-(2-fluoro-6-methoxybenzyl)piperidin-4-yl]-3-[4-(7H-pyrrolo[2,3-d]pyrimidin-4-yl)-1H-pyrazol-1-yl]azetidin-3-yl}acetonitrile] | 2.6
N#CCC1(n2cc(-c3ncnc4[nH]ccc34)cn2)CN(C2CCN(Cc3ccc(-c4conn4)cc3)CC2)C1 [Example 221, {1-{1-[4-(1,2,3-oxadiazol-4-yl)benzyl]piperidin-4-yl}-3-[4-(7H-pyrrolo[2,3-d]pyrimidin-4-yl)-1H-pyrazol-1-yl]azetidin-3-yl}acetonitrile] | 1.3
COc1nc(CN2CCC(N3CC(CC#N)(n4cc(-c5ncnc6[nH]ccc56)cn4)C3)CC2)ccc1C#N [Example 224, 6-[(4-{3-(cyanomethyl)-3-[4-(7H-pyrrolo[2,3-d]pyrimidin-4-yl)-1H-pyrazol-1-yl]azetidin-1-yl}piperidin-1-yl)methyl]-2-methoxynicotinonitrile] | 2.4
N#CCC1(n2cc(-c3ncnc4[nH]ccc34)cn2)CN(C2CCN(Cc3c(F)ccc(Cl)c3F)CC2)C1 [Example 228, {1-[1-(3-chloro-2,6-difluorobenzyl)piperidin-4-yl]-3-[4-(7H-pyrrolo[2,3-d]pyrimidin-4-yl)-1H-pyrazol-1-yl]azetidin-3-yl}acetonitrile] | 3.9
Cc1onc(-c2ccccc2)c1CN1CCC(N2CC(CC#N)(n3cc(-c4ncnc5[nH]ccc45)cn3)C2)CC1 [Example 230, {1-{1-[(5-methyl-3-phenylisoxazol-4-yl)methyl]piperidin-4-yl}-3-[4-(7H-pyrrolo[2,3-d]pyrimidin-4-yl)-1H-pyrazol-1-yl]azetidin-3-yl}acetonitrile] | 9.3
N#CCC1(n2cc(-c3ncnc4[nH]ccc34)cn2)CN(C2CCN(Cc3ccnc(C(F)(F)F)c3F)CC2)C1 [Example 231, {1-(1-{[3-fluoro-2-(trifluoromethyl)pyridin-4-yl]methyl}piperidin-4-yl)-3-[4-(7H-pyrrolo[2,3-d]pyrimidin-4-yl)-1H-pyrazol-1-yl]azetidin-3-yl}acetonitrile] | 5.1
N#CCC1(n2cc(-c3ncnc4[nH]ccc34)cn2)CN(C2CCN(Cc3cccc(Oc4ccccc4)c3)CC2)C1 [Example 233, {1-[1-(3-phenoxybenzyl)piperidin-4-yl]-3-[4-(7H-pyrrolo[2,3-d]pyrimidin-4-yl)-1H-pyrazol-1-yl]azetidin-3-yl}acetonitrile] | 2.2
N#CCC1(n2cc(-c3ncnc4[nH]ccc34)cn2)CN(C2CCN(Cc3c(C(F)(F)F)ccc(Cl)c3F)CC2)C1 [Example 236, {1-{1-[3-chloro-2-fluoro-6-(trifluoromethyl)benzyl]piperidin-4-yl}-3-[4-(7H-pyrrolo[2,3-d]pyrimidin-4-yl)-1H-pyrazol-1-yl]azetidin-3-yl}acetonitrile] | 5.5
COc1ccc2nc(Cl)c(CN3CCC(N4CC(CC#N)(n5cc(-c6ncnc7[nH]ccc67)cn5)C4)CC3)cc2c1 [Example 238, {1-{1-[(2-chloro-6-methoxyquinolin-3-yl)methyl]piperidin-4-yl}-3-[4-(7H-pyrrolo[2,3-d]pyrimidin-4-yl)-1H-pyrazol-1-yl]azetidin-3-yl}acetonitrile] | 6.8
COc1ccc(CN2CCC(N3CC(CC#N)(n4cc(-c5ncnc6[nH]ccc56)cn4)C3)CC2)c(Cl)c1OC [Example 239, {1-[1-(2-chloro-3,4-dimethoxybenzyl)piperidin-4-yl]-3-[4-(7H-pyrrolo[2,3-d]pyrimidin-4-yl)-1H-pyrazol-1-yl]azetidin-3-yl}acetonitrile] | 2.3
N#CCC1(n2cc(-c3ncnc4[nH]ccc34)cn2)CN(C2CC3CCC(C2)N3Cc2c(F)ccc(F)c2Cl)C1 (stereo not drawn) [Example 241, {1-[8-(2-Chloro-3,6-difluorobenzyl)-8-azabicyclo[3.2.1]oct-3-yl]-3-[4-(7H-pyrrolo[2,3-d]pyrimidin-4-yl)-1H-pyrazol-1-yl]azetidin-3-yl}acetonitrile] | 3.8
CC1CC(N2CC(CC#N)(n3cc(-c4ncnc5[nH]ccc45)cn3)C2)CCN1Cc1c(F)cccc1Cl (stereo not drawn) [Example 245, {1-[1-(2-chloro-6-fluorobenzyl)-2-methylpiperidin-4-yl]-3-[4-(7H-pyrrolo[2,3-d]pyrimidin-4-yl)-1H-pyrazol-1-yl]azetidin-3-yl}acetonitrile] | 1.5
Cn1nccc1S(=O)(=O)N1CCC(N2CC(CC#N)(n3cc(-c4ncnc5[nH]ccc45)cn3)C2)CC1 [Example 246, {1-{1-[(1-Methyl-1H-pyrazol-5-yl)sulfonyl]piperidin-4-yl}-3-[4-(7H-pyrrolo[2,3-d]pyrimidin-4-yl)-1H-pyrazol-1-yl]azetidin-3-yl}acetonitrile] | 7.5
N#CCC1(n2cc(-c3ncnc4[nH]ccc34)cn2)CN(C2CCN(S(=O)(=O)c3ccccc3C#N)CC2)C1 [Example 247, 2-[(4-{3-(cyanomethyl)-3-[4-(7H-pyrrolo[2,3-d]pyrimidin-4-yl)-1H-pyrazol-1-yl]azetidin-1-yl}piperidin-1-yl)sulfonyl]benzonitrile] | 5.1
N#CCC1(n2cc(-c3ncnc4[nH]ccc34)cn2)CN(C2CCN(S(=O)(=O)c3cccc(C#N)c3)CC2)C1 [Example 248, 3-[(4-{3-(cyanomethyl)-3-[4-(7H-pyrrolo[2,3-d]pyrimidin-4-yl)-1H-pyrazol-1-yl]azetidin-1-yl}piperidin-1-yl)sulfonyl]benzonitrile] | 5.2

Next, values leading:

IC50 Ratio JAK2/JAK1 | Compound
5.7 | N#CCC1(n2cc(-c3ncnc4[nH]ccc34)cn2)CN(C2CCN(Cc3cc(F)cc(F)c3)CC2)C1 [Example 215, {1-[1-(3,5-difluorobenzyl)piperidin-4-yl]-3-[4-(7H-pyrrolo[2,3-d]pyrimidin-4-yl)-1H-pyrazol-1-yl]azetidin-3-yl}acetonitrile]
2.4 | N#CCC1(n2cc(-c3ncnc4[nH]ccc34)cn2)CN(C2CCN(Cc3cccc(Cl)c3Cl)CC2)C1 [Example 219, {1-[1-(2,3-dichlorobenzyl)piperidin-4-yl]-3-[4-(7H-pyrrolo[2,3-d]pyrimidin-4-yl)-1H-pyrazol-1-yl]azetidin-3-yl}acetonitrile]
4.4 | N#CCC1(n2cc(-c3ncnc4[nH]ccc34)cn2)CN(C2CCN(Cc3ccc(F)c(C#N)c3)CC2)C1 [Example 220, 5-[(4-{3-(cyanomethyl)-3-[4-(7H-pyrrolo[2,3-d]pyrimidin-4-yl)-1H-pyrazol-1-yl]azetidin-1-yl}piperidin-1-yl)methyl]-2-fluorobenzonitrile]
5.9 | N#CCC1(n2cc(-c3ncnc4[nH]ccc34)cn2)CN(C2CCN(Cc3cccc(C#N)c3)CC2)C1 [Example 223, 3-[(4-{3-(cyanomethyl)-3-[4-(7H-pyrrolo[2,3-d]pyrimidin-4-yl)-1H-pyrazol-1-yl]azetidin-1-yl}piperidin-1-yl)methyl]benzonitrile]
3.8 | N#CCC1(n2cc(-c3ncnc4[nH]ccc34)cn2)CN(C2CCN(Cc3cc(Br)nc(Br)c3)CC2)C1 [Example 225, {1-{1-[(2,6-dibromopyridin-4-yl)methyl]piperidin-4-yl}-3-[4-(7H-pyrrolo[2,3-d]pyrimidin-4-yl)-1H-pyrazol-1-yl]azetidin-3-yl}acetonitrile]
1.9 | N#CCC1(n2cc(-c3ncnc4[nH]ccc34)cn2)CN(C2CCN(Cc3ccnc(Br)c3)CC2)C1 [Example 226, {1-{1-[(2-bromopyridin-4-yl)methyl]piperidin-4-yl}-3-[4-(7H-pyrrolo[2,3-d]pyrimidin-4-yl)-1H-pyrazol-1-yl]azetidin-3-yl}acetonitrile]
7.9 | N#CCC1(n2cc(-c3ncnc4[nH]ccc34)cn2)CN(C2CCN(Cc3c(F)cccc3Cl)CC2)C1 [Example 227, {1-[1-(2-chloro-6-fluorobenzyl)piperidin-4-yl]-3-[4-(7H-pyrrolo[2,3-d]pyrimidin-4-yl)-1H-pyrazol-1-yl]azetidin-3-yl}acetonitrile]
6.4 | N#CCC1(n2cc(-c3ncnc4[nH]ccc34)cn2)CN(C2CCN(Cc3ccc(C#N)c(F)c3)CC2)C1 [Example 229, 4-[(4-{3-(cyanomethyl)-3-[4-(7H-pyrrolo[2,3-d]pyrimidin-4-yl)-1H-pyrazol-1-yl]azetidin-1-yl}piperidin-1-yl)methyl]-2-fluorobenzonitrile]
0.7 | N#CCC1(n2cc(-c3ncnc4[nH]ccc34)cn2)CN(C2CCN(Cc3cc4ccccc4o3)CC2)C1 [Example 232, {1-[1-(1-benzofuran-2-ylmethyl)piperidin-4-yl]-3-[4-(7H-pyrrolo[2,3-d]pyrimidin-4-yl)-1H-pyrazol-1-yl]azetidin-3-yl}acetonitrile]
4.2 | N#CCC1(n2cc(-c3ncnc4[nH]ccc34)cn2)CN(C2CCN(Cc3ccc4c(c3)OCCO4)CC2)C1 [Example 234, {1-[1-(2,3-dihydro-1,4-benzodioxin-6-ylmethyl)piperidin-4-yl]-3-[4-(7H-pyrrolo[2,3-d]pyrimidin-4-yl)-1H-pyrazol-1-yl]azetidin-3-yl}acetonitrile]
2.3 | N#CCC1(n2cc(-c3ncnc4[nH]ccc34)cn2)CN(C2CCN(Cc3c(Cl)cncc3Cl)CC2)C1 [Example 237, {1-{1-[(3,5-dichloropyridin-4-yl)methyl]piperidin-4-yl}-3-[4-(7H-pyrrolo[2,3-d]pyrimidin-4-yl)-1H-pyrazol-1-yl]azetidin-3-yl}acetonitrile]
